# Data as given in patent US20260207637A1, “MODULATOR FOR PROMOTING BINDING OF BUTYROPHILIN 3A1/2A1” (priority 2023, published 2026).
# Read-outs that look alike come from different tables or passages of the source.
# Experiments:
# Format in all cases: cell-based
# MIApaca/FG2 cells = assay: EC50 assay of small molecule activated γδ T cells to kill MIApaca/FG2 tumor cells (3-fold dilution protocol); settings: 0.05-100 nM, read-out: MIApaca killing (EC50)
# Protocol: γδT cells and MIApaca/FG2 tumor cell lines were expanded and cultured in vitro. MIApaca/FG2 cells were digested, and the cells were counted and resuspended in DMEM complete medium, the density of the cell suspension was adjusted and added into a 96-well plate at 5×10^3 cells/100 […]/well for overnight incubation. On the next day, the test compound and the control compound were diluted at a 3-fold ratio with DMSO, and 4 μL of the diluted compound was added to 96 μL of culture medium for 25-fold dilution. 5 μL of 25-fold diluted compound was transferred to the corresponding well which had been plated with tumor cells, and the actual detection concentration was in the range of 0.05-100 nM. γδT cells were resuspended in γδT complete medium, and the density of the cell suspension was adjusted according to the effector-target ratio of E:T=2:1, and then the cell was added to the corresponding well at 1×10^4 cells/100 μL/well. After co-culture at 37° C., 5% CO2 for 20 hours, the cells were centrifuged. The supernatant was removed, and 50 μL of cell lysate containing fluorescein substrate was added to each well. After standing for 18 minutes in the dark, the signal of chemiluminescence was detected. The EC50 value was calculated by four-parameter fitting, with the corresponding signal value of the well with only tumor cells as the minimum killing value, and the corresponding value of the well without tumor cells as the maximum killing value. The killing data of MIApaca/FG2 cells is as follows: […]
# Huh7/FG2 cells = assay: EC50 assay of small molecule activated γδ T cells to kill Huh7/FG2 tumor cells; settings: γδT cells + Huh7/FG2, E:T=5:1, co-culture 20 hours, 0.05-100 nM, read-out: Huh7 killing (EC50)
# Protocol: (§1) γδT cells and Huh7/FG2 tumor cell lines were expanded and cultured in vitro. The Huh7/FG2 cells were digested, and the cells were counted and resuspended in DMEM complete medium, the density of the cell suspension was adjusted and added into a 96-well plate at 5×10^3 cells/100 μL/well for overnight incubation. On the next day, the test compound and the control compound were diluted at a 3-fold ratio with DMSO, and 4 μL of the diluted compound was added to 96 μL of culture medium for 25-fold dilution. 5 μL of 25-fold diluted compound was transferred to the corresponding well which had been plated with tumor cells, and the actual detection concentration was in the range of 0.05-100 nM. γδT cells were resuspended in γδT complete medium, and the density of the cell suspension was adjusted according to the effector-target ratio of E:T=5:1, and then the cell was added to the corresponding well at 2.5×10^4 cells/100 μL/well. After co-culture at 37° C., 5% CO2 for 20 hours, the cells were centrifuged. […] After standing for 18 minutes in the dark, the signal of chemiluminescence was detected. The EC50 value was calculated by four-parameter fitting, with the corresponding signal value of the well with only tumor cells as the minimum killing value, and the corresponding value of the well without tumor cells as the maximum killing value.
# SKOV3/ELP cells = assay: EC50 assay of small molecule activated γδ T cells to kill SKOV3/ELP tumor cells; settings: γδT cells + SKOV3/ELP, E:T=2:1, co-culture 20 hours, 0.05-100 nM, read-out: SKOV3 killing (EC50)
# Protocol: as §1, with “cells and SKOV3/ELP tumor cell” for “cells and Huh7/FG2 tumor cell”, “vitro. The SKOV3/ELP cells were” for “vitro. The Huh7/FG2 cells were”, “resuspended in MC5A complete medium,” for “resuspended in DMEM complete medium,”, “5×10^3 cells/100 […]/well for overnight” for “5×10^3 cells/100 μL/well for overnight”, “ratio of E:T=2:1, and then” for “ratio of E:T=5:1, and then”, “well at 1×10^4 cells/100 μL/well.” for “well at 2.5×10^4 cells/100 μL/well.”
# MV4-11-luc cells = assay: EC50 assay of small molecule activated γδ T cells to kill MV4-11-luc tumor cells; settings: γδT cells + MV4-11-luc, E:T=2:1, co-culture 20 hours, 0.05-100 nM, read-out: MV4-11 killing (EC50)
# Protocol: as §1, with “MV4-11-luc” for “Huh7/FG2”, “IMDM” for “DMEM”, “E:T=2:1,” for “E:T=5:1,”, “1×10^4” for “2.5×10^4”
Compound,"EC50 (MIApaca/FG2 cells; Homo sapiens, MIA PaCa-2, γδT cells + MIApaca/FG2, E:T=2:1, co-culture 20 hours)","EC50 (Huh7/FG2 cells; Homo sapiens, Huh-7)","EC50 (SKOV3/ELP cells; Homo sapiens, SK-OV-3)",EC50 (MV4-11-luc cells; Homo sapiens),"EC50 (MIApaca/FG2 cells; γδT cells + MIApaca/FG2, E:T=2:1, co-culture 20 hours)",EC50 (Huh7/FG2 cells),EC50 (SKOV3/ELP cells),EC50 (MV4-11-luc cells)
"C/C(=C\CCP(=O)(N[C@@H](C)C(=O)OC(C)C)Oc1ccccc1)CO (stereo partly drawn) [Control compound 1, Isopropyl (((E)-5-hydroxy-4-methylpent-3-en-1-yl)(phenoxy)phosphoryl)-L-alaninate, reference compound]",0.53 nM,1.68 nM,1.14 nM,0.05 nM,–,–,–,–
"C/C(=C\CC[P@@](=O)(N[C@@H](C)C(=O)O[C@@H]1CCOC1)Oc1ccccc1)CO [Compound 19, (R)-tetrahydrofuran-3-yl ((S)-((R)-5-hydroxy-4-methylpent-3-en-1-yl)(phenoxy)phosphoryl)-L-alaninate]",–,–,–,–,0.28 nM,0.42 nM,0.47 nM,0.004 nM
